How the values were obtained:
Format in all cases: cell-based
[1] = test system: MRC-5 cell line; assay: Cell viability assay for MRC-5 cell line (EZ-Cytox); conditions: Homo sapiens, MRC5, 120 h; MRC-5 normal cell line, 5 days, 10000 nM to 1.52 nM; read-out: Activity: IC50 value, cell viability, MRC-5 cell line (Exemplary Compounds)
Description: 4. Cell Viability Assay for MRC-5 Cell Line
(1) Culture of MRC-5 Cell Line
The MRC-5 cell line was purchased from KCLB. Passage of cultured cells was maintained within P15.
(2) Treatment of Compounds of the Present Invention
Then, it was cultured in 37° C. CO2 incubator (Thermo Fisher Scientific) for 5 days.
(3) Cytotoxicity Experiment
CO2 incubator for 4 hours.

[2] = test system: NCI-H526 cell line; assay: Cell viability assay for NCI-H526 cell line (EZ-Cytox); conditions: Homo sapiens, NCI-H526, 120 h; H526 cells, 5 days, 3000 nM to 0.46 nM
Procedure, shortened: (§1)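 Human SCLC lines cultured with compound for 5 days in a CO2 incubator; viability read by EZ-Cytox absorbance at 450 nm after 3 min shaking. IC50 reported in activity bins (A: <30 nM up to E: <400 nM).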

[3] = test system: NCI-H69 cell line; assay: Cell viability assay for NCI-H69 cell line (EZ-Cytox); conditions: Homo sapiens, NCI-H69, 120 h; H69 cells, 5 days, 3000 nM to 0.46 nM
Procedure, shortened: as §1

[4] = target: T1, PLK1 (Homo sapiens, UniProt P53350); assay: Luciferase assay for PLK1 in HeLa LgBit (Plk1-HiBit KI) cell line; conditions: 300 nM compound, luminescence after 9 hours
T1 construct: endogenous in cells; host or cells: HeLa LgBit (Plk1-HiBit KI): HeLa stably expressing LgBit, with a CRISPR/Cas9 knock-in of HiBit at the endogenous PLK1 locus
Procedure, shortened: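 HeLa LgBit cells with endogenous PLK1 C-terminally HiBit-tagged by CRISPR knock-in; released from 24 h 2 mM thymidine block, seeded, grown 18 h. Compounds at 300 nM with Endurazine substrate; luminescence (470-480 nm) tracked in real time, expressed as ratio to DMSO.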

T1 sequence (P53350 whole entry): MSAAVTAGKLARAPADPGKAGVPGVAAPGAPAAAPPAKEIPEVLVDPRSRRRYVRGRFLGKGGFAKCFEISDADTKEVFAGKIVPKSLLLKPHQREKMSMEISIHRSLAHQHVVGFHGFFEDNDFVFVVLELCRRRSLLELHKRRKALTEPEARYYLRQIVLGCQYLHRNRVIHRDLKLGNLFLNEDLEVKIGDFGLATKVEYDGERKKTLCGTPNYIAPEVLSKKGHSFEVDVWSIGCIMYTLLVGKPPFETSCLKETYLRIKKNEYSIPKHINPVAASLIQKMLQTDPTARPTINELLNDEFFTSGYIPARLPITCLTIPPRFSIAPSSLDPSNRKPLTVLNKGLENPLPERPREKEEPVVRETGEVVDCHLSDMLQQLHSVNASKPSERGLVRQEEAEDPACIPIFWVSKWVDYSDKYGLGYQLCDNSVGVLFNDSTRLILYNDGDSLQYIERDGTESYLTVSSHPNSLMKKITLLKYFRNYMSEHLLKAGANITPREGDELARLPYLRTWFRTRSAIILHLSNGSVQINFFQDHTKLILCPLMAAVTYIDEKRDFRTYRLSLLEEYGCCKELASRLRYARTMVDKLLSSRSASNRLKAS

How did the IC50 [1] turn out when `COc1cc(C(=O)NN2CCC(CCN3CCN(c4ccc(NC5CCC(=O)NC5=O)c(F)c4F)CC3)CC2)ccc1Nc1ncc2c(n1)N(C1CCCC1)CC(F)(F)C(=O)N2C` (stereo not shown) [Compound 71, 4-((9-cyclopentyl-7,7-difluoro-5-methyl-6-oxo-6,7,8,9-tetrahydro-5H-pyrimido[4,5-b][1,4]diazepin-2-yl)amino)-N-(4-(2-(4-(4-((2,6-dioxopiperidin-3-yl)amino)-2,3-difluorophenyl)piperazin-1-yl)ethyl)piperidin-1-yl)-3-methoxybenzamide] was run?
Its IC50 is > 10000 nM.

What about the IC50 [2] of the same compound?
Its IC50 is < 30 nM.

And the IC50 [3]?
Its IC50 is < 30 nM.

What about the “Activity: ratio of the luminescence value of compound treatment group to DMSO treatment group” value (shortened to “Activity: ratio”) [4] of the same compound?
The value was “+++ (+++: <0.3)”.

What does the source list for `COc1cc(C(=O)NN2CCC(CCN3CCN(c4cc(OC)c(NC5CCC(=O)NC5=O)cc4F)CC3)CC2)ccc1Nc1ncc2c(n1)N(C1CCCC1)CC(F)(F)C(=O)N2C` (stereo not shown) [Compound 40, 4-((9-cyclopentyl-7,7-difluoro-5-methyl-6-oxo-6,7,8,9-tetrahydro-5H-pyrimido[4,5-b][1,4]diazepin-2-yl)amino)-N-(4-(2-(4-(4-((2,6-dioxopiperidin-3-yl)amino)-2-fluoro-5-methoxyphenyl)piperazin-1-yl)ethyl)piperidin-1-yl)-3-methoxybenzamide]?
IC50 [1]: > 10000 nM; IC50 [2]: < 30 nM; IC50 [3]: < 30 nM; Activity: ratio of the luminescence value of compound treatment group to DMSO treatment group [4]: +++ (+++: <0.3)

What does the source list for `COc1cc(C(=O)NN2CCC(CCN3CCN(c4ccc(NC5CCC(=O)NC5=O)c(F)c4OC)CC3)CC2)ccc1Nc1ncc2c(n1)N(C1CCCC1)CC(F)(F)C(=O)N2C` (stereo not shown) [Compound 55, 4-((9-cyclopentyl-7,7-difluoro-5-methyl-6-oxo-6,7,8,9-tetrahydro-5H-pyrimido[4,5-b][1,4]diazepin-2-yl)amino)-N-(4-(2-(4-(4-((2,6-dioxopiperidin-3-yl)amino)-3-fluoro-2-methoxyphenyl)piperazin-1-yl)ethyl)piperidin-1-yl)-3-methoxybenzamide]?
IC50 [1]: > 10000 nM; IC50 [2]: < 30 nM; IC50 [3]: < 30 nM; Activity: ratio of the luminescence value of compound treatment group to DMSO treatment group [4]: +++ (+++: <0.3)

How did the IC50 [1] turn out when `COc1cc(C(=O)NN2CCC(CCN3CCN(c4cc(F)c(NC5CCC(=O)NC5=O)cc4OC)CC3)CC2)ccc1Nc1ncc2c(n1)N(C1CCCC1)CC(F)(F)C(=O)N2C` (stereo not shown) [Compound 56, 4-((9-cyclopentyl-7,7-difluoro-5-methyl-6-oxo-6,7,8,9-tetrahydro-5H-pyrimido[4,5-b][1,4]diazepin-2-yl)amino)-N-(4-(2-(4-(4-((2,6-dioxopiperidin-3-yl)amino)-5-fluoro-2-methoxyphenyl)piperazin-1-yl)ethyl)piperidin-1-yl)-3-methoxybenzamide] was run?
The IC50 was > 10000 nM.

What about the IC50 [2] of the same compound?
The IC50 was < 30 nM.

What about the IC50 [3] of the same compound?
Its IC50 is < 30 nM.

And the “Activity: ratio” value [4]?
Its value is “++ (++: <0.5)”.

For `COc1cc(C(=O)NN2CCC(CCN3CCN(c4ccc(NC5CCC(=O)NC5=O)cc4F)CC3)CC2)ccc1Nc1ncc2c(n1)N(C(C)C)CC(F)(F)C(=O)N2C` (stereo not shown) [Compound 29, 4-((7,7-difluoro-9-isopropyl-5-methyl-6-oxo-6,7,8,9-tetrahydro-5H-pyrimido[4,5-b][1,4]diazepin-2-yl)amino)-N-(4-(2-(4-(4-((2,6-dioxopiperidin-3-yl)amino)-2-fluorophenyl)piperazin-1-yl)ethyl)piperidin-1-yl)-3-methoxybenzamide], which IC50 [1] is on record?
The IC50 was > 10000 nM.

And the IC50 [2]?
Its IC50 is < 30 nM.

What about the IC50 [3] of the same compound?
The IC50 was < 30 nM.

And the “Activity: ratio” value [4]?
Its value is “+++ (+++: <0.3)”.

For `COc1cc(C(=O)NC2CCN(CCN3CCN(c4cc(Cl)c(NC5CCC(=O)NC5=O)cc4F)CC3)CC2)c(F)cc1Nc1ncc2c(n1)N(C1CCCC1)CC(F)(F)C(=O)N2C` (stereo not shown) [Compound 73, N(1-(2-(4-(5-chloro-4-((2,6-dioxopiperidin-3-yl)amino)-2-fluorophenyl)piperazin-1-yl)ethyl)piperidin-4-yl)-4-((9-cyclopentyl-7,7-difluoro-5-methyl-6-oxo-6,7,8,9-tetrahydro-5H-pyrimido[4,5-b][1,4]diazepin-2-yl)amino)-2-fluoro-5-methoxybenzamide], which IC50 [1] is on record?
Its IC50 is > 10000 nM.

And the IC50 [2]?
The IC50 was < 50 nM.

And the IC50 [3]?
The IC50 was < 100 nM.

And the “Activity: ratio” value [4]?
The value was “++ (++: <0.5)”.

Which IC50 [1] does the source give for `COc1cc(C(=O)NC2CCN(CCN3CCN(c4cc(Cl)c(NC5CCC(=O)NC5=O)cc4F)CC3)CC2)c(F)cc1Nc1ncc2c(n1)N(C(C)C)CC(F)(F)C(=O)N2C` (stereo not shown) [Compound 72, N(1-(2-(4-(5-chloro-4-((2,6-dioxopiperidin-3-yl)amino)-2-fluorophenyl)piperazin-1-yl)ethyl)piperidin-4-yl)-4-((7,7-difluoro-9-isopropyl-5-methyl-6-oxo-6,7,8,9-tetrahydro-5H-pyrimido[4,5-b][1,4]diazepin-2-yl)amino)-2-fluoro-5-methoxybenzamide] here?
The IC50 was > 10000 nM.

And the IC50 [2]?
The IC50 was < 50 nM.

What about the IC50 [3] of the same compound?
Its IC50 is < 100 nM.

What about the “Activity: ratio” value [4] of the same compound?
Its value is “++ (++: <0.5)”.

Which results are given for `COc1cc(C(=O)NN2CCC(CCN3CCN(c4cc(C)c(NC5CCC(=O)NC5=O)cc4F)CC3)CC2)ccc1Nc1ncc2c(n1)N(C1CCCC1)CC(F)(F)C(=O)N2C` (stereo not shown) [Compound 74, 4-((9-cyclopentyl-7,7-difluoro-5-methyl-6-oxo-6,7,8,9-tetrahydro-5H-pyrimido[4,5-b][1,4]diazepin-2-yl)amino)-N-(4-(2-(4-(4-((2,6-dioxopiperidin-3-yl)amino)-2-fluoro-5-methylphenyl)piperazin-1-yl)ethyl)piperidin-1-yl)-3-methoxybenzamide]?
IC50 [1]: > 10000 nM; IC50 [2]: < 30 nM; IC50 [3]: < 30 nM; Activity: ratio of the luminescence value of compound treatment group to DMSO treatment group [4]: +++ (+++: <0.3)

How did the IC50 [1] turn out when `COc1cc(C(=O)NC2CC3(CCN(CC4CCN(c5cc(OC)c(NC6CCC(=O)NC6=O)cc5F)CC4)CC3)C2)ccc1Nc1ncc2c(n1)N(C1CCCC1)CC(F)(F)C(=O)N2C` (stereo not shown) [Compound 51, 4-((9-cyclopentyl-7,7-difluoro-5-methyl-6-oxo-6,7,8,9-tetrahydro-5H-pyrimido[4,5-b][1,4]diazepin-2-yl)amino)-N-(7-((1-(4-((2,6-dioxopiperidin-3-yl)amino)-2-fluoro-5-methoxyphenyl)piperidin-4-yl)methyl)-7-azaspiro[3.5]nonan-2-yl)-3-methoxybenzamide] was run?
The IC50 was > 10000 nM.

And the IC50 [2]?
Its IC50 is < 30 nM.

And the IC50 [3]?
The IC50 was < 30 nM.

What about the “Activity: ratio” value [4] of the same compound?
Its value is “+++ (+++: <0.3)”.

What does the source list for `COc1cc(C(=O)NN2CCC(CCN3CCN(c4cc(C#N)c(NC5CCC(=O)NC5=O)cc4F)CC3)CC2)ccc1Nc1ncc2c(n1)N(C1CCCC1)CC(F)(F)C(=O)N2C` (stereo not shown) [Compound 76, N(4-(2-(4-(5-cyano-4-((2,6-dioxopiperidin-3-yl)amino)-2-fluorophenyl)piperazin-1-yl)ethyl)piperidin-1-yl)-4-((9-cyclopentyl-7,7-difluoro-5-methyl-6-oxo-6,7,8,9-tetrahydro-5H-pyrimido[4,5-b][1,4]diazepin-2-yl)amino)-3-methoxybenzamide]?
IC50 [1]: > 10000 nM; IC50 [2]: < 30 nM; IC50 [3]: < 30 nM; Activity: ratio of the luminescence value of compound treatment group to DMSO treatment group [4]: ++ (++: <0.5)

— patent US20260273072A1, “NOVEL PLK1 DEGRADATION INDUCING COMPOUND” (UPPTHERA, INC., priority 2023, published 2026)
